{"source": "patent US20040229219A1", "about": "(priority 2003, published 2004)", "key": {"measles virus": {"test_system": "measles virus", "conditions": "cited from earlier work"}, "HIV-1": {"test_system": "HIV-1", "conditions": "cited from earlier work"}}}
{"compound": "CC[C@H](C)[C@H](NC(=O)[C@H](CC(C)C)NC(=O)[C@H](CC(C)C)NC(=O)[C@H](Cc1c[nH]c2ccccc12)NC(=O)[C@@H](NC(=O)[C@H](Cc1ccc(O)cc1)NC(=O)[C@H](Cc1c[nH]c2ccccc12)NC(=O)[C@@H]1CCCN1C(=O)[C@H](Cc1c[nH]c2ccccc12)NC(=O)[C@H](CCCCN)NC(=O)[C@@H](NC(=O)[C@H](Cc1ccc(O)cc1)NC(=O)[C@H](CCSC)NC(=O)[C@H](CCC(=O)O)NC(=O)[C@H](Cc1ccc(O)cc1)NC(=O)[C@@H](NC(=O)CNC(=O)[C@@H](NC(=O)[C@H](CCC(=O)O)NC(=O)[C@H](CCCCN)NC(=O)[C@H](CC(C)C)NC(=O)[C@H](CC(N)=O)NC(=O)[C@@H](NC(=O)[C@H](Cc1ccc(O)cc1)NC(=O)[C@H](CO)NC(=O)[C@H](CCC(=O)O)NC(=O)[C@H](CC(N)=O)NC(=O)[C@H](CC(C)C)NC(=O)[C@H](CCCCN)NC(=O)[C@H](CCCCN)NC(=O)[C@@H](NC(=O)[C@H](C)NC(=O)[C@H](CC(=O)O)NC(=O)[C@H](CCC(N)=O)NC(=O)[C@@H](NC(=O)[C@@H](N)CCCNC(=N)N)[C@@H](C)CC)[C@@H](C)CC)[C@@H](C)CC)C(C)C)[C@@H](C)O)C(C)C)C(C)C)C(=O)O", "note": "[SEQ ID NO: 52]", "values": [{"measurement": "non-specific cytotoxic effects of the peptide on cells (morphology)", "setting": "L2 cells", "value": "normal morphology"}]}
{"compound": "carbobenzoxy derivative of phenylalanine-phenylalanine-glycine [z-FFG]", "values": [{"measurement": "activity against measles virus", "setting": "measles virus", "value": "effective"}]}
{"compound": "enfuvirtide", "values": [{"measurement": "concentration range that suppresses HIV-1 infection", "setting": "HIV-1", "value": "nanomolar range"}]}
